Holding throughout (type): cell-based
Assay [1] relates to Candida albican ATCC MYA-576. Nature of the assay: In vitro antifungal activity (MIC80), Candida albican ATCC MYA-576. The following applies: Candida; Table 2, MYA 576; read-out: Minimal inhibitory concentration (MIC80). How it is done: (§1) In vitro antifungal activities of the inventive antifungal compounds were evaluated using test strains including Candida albican (ATCC 90873, 204276, 62342, 64124, 64550, 96901, MYA-573, MYA-574, MYA-575, MYA-576, MYA-1003) and Aspergillus fumigatus (ATCC 16424). Test samples and positive control samples were prepared by dissolving the inventive compounds and comparative compounds, i.e., amphotericin B, fluconazole and itraconazole, in DMSO, respectively, and each successively diluted with medium to obtain test and positive control solutions having test compound concentrations of 0.125 μg/ml to a maximum concentration not generating turbidity. Minimal inhibitory concentration (MIC80) of each compound was determined as the lowest concentration of the test compounds required to reduce growth by 80% relative to a control strain not treated.
(§2) 1) Test strain: Candida albican ATCC 90873, 204276, 62342, 64124, 64550, 96901, MYA-573, MYA-574, MYA-575, MYA-576, MYA-1003, and Aspergillus fumigatus ATCC 16424 were commercially obtained from The American Type Culture Collection (ATCC) and subcultured in CHEMON Co. Ltd. (amphotericin B was commercially purchased from Sigma, and fluconazole and itraconazole were prepared according to methods described in British Patent No. 2,099,818; and U.S. Pat. No. 4,267,179, respectively).
(§3) 2) Medium and culture condition: Candida albican was cultured in Sabourad Dextrose Agar, YM Agar or Potato Dextrose Agar according to ATCC information at a temperature of 37° C., 35° C., 30° C. or 25° C. Aspergillus fumigatus was cultured in Malt Extract Agar or Potato Dextrose Agar at a temperature ranging from 24 to 27° C.
(§4) 3) Preparation of test samples: the inventive compounds and comparative compounds were each diluted with DMSO to obtain 1 to 2 ml of a test sample in a concentration of 100-folds of the determining maximum concentration (256 μg/ml).
(§5) The test samples were each successively diluted with RPMI 1640 to obtain test solutions having concentrations of […] in a 12×75 mm sterilized disposable culture tube. The final concentration of DMSO was adjusted to […] (v/v).
(§6) 5) Preparation of strain solution and inoculation
(§7) Candida albican strains were each subcultured in Sabourad Dextrose Agar, YM Agar or Potato Dextrose Agar medium at 35° C. for 2˜3 days. In the case of yeasts, a single colony was taken from prominent colonies and suspended in 0.85% sterile physiological saline solution and the turbidity of the suspension was adjusted to 80˜82% at 530 nm, and then diluted 50-fold with RPMI 1640 medium to 1.0×10^3˜5.0×10^3 CFU/ml. The turbidity of fungi was adjusted to 80˜82% and the suspension was diluted 50-fold to […]. Aspergillus fumigatus strains were subcultured in Malt Extract Agar for 7˜10 days, and a single colony was taken from prominent colonies and suspended in 0.85% sterile physiological saline solution and the suspension was adjusted to 0.108 at 530 nm, and then diluted 1000-fold with RPMI 1640 medium to 0.4×10^2˜5×10^4 CFU/ml. The turbidity of fungi was adjusted to 80˜82% and the suspension was diluted 50-fold to 0.4102˜0.5104 CFU/ml.
(§8) The strain solutions thus obtained were each seeded into a sterilized 96-well microplate, 0.1 ml of each test solution were added thereto, and […] of alamarblue was treated to each well (Biosource, #DAL1100). This procedure was repeated 2 times.
(§9) Minimal inhibitory concentration (MIC80) of each compound was determined as the lowest concentration of the test compounds required to reduce growth by 80% relative to a control strain not treated.

The test system of assay [2] is Candida albican ATCC 64550. Nature of the assay: In vitro antifungal activity (MIC80), Candida albican ATCC 64550. The following applies: Candida, ATCC64550; Table 2, 64550; read-out: Minimal inhibitory concentration (MIC80). How it is done:
as §1, §2, §3, §4, §5, §6, §7, §8, §9

Assay [3] relates to Candida albican ATCC MYA-573. The assay can be described thus: In vitro antifungal activity (MIC80), Candida albican ATCC MYA-573. Particulars: Candida; Table 2, MYA 573; read-out: Minimal inhibitory concentration (MIC80). As for the experimental part: as §1, §2, §3, §4, §5, §6, §7, §8, §9
The subject of assay [4] is Candida albican ATCC MYA-574. The assay can be described thus: In vitro antifungal activity (MIC80), Candida albican ATCC MYA-574. Particulars: Candida; Table 2, MYA 574; read-out: Minimal inhibitory concentration (MIC80). As for the experimental part:
as §1, §2, §3, §4, §5, §6, §7, §8, §9

Assay [5] relates to Candida albican ATCC 90873. Nature of the assay: In vitro antifungal activity (MIC80), Candida albican ATCC 90873. The following applies: Candida, ATCC90873; Table 2, ATCC 90873; read-out: Minimal inhibitory concentration (MIC80). As for the experimental part:
as §1, §2, §3, §4, §5, §6, §7, §8, §9

Assay [6] relates to Candida albican ATCC 64124. Nature of the assay: In vitro antifungal activity (MIC80), Candida albican ATCC 64124. The following applies: Candida, ATCC64124; Table 2, 64124; read-out: Minimal inhibitory concentration (MIC80). How it is done:
as §1, §2, §3, §4, §5, §6, §7, §8, §9

Assay [7] concerns Candida albican ATCC 62342. Nature of the assay: In vitro antifungal activity (MIC80), Candida albican ATCC 62342. The following applies: Candida, ATCC62342; Table 2, 62342; read-out: Minimal inhibitory concentration (MIC80). As for the experimental part:
as §1, §2, §3, §4, §5, §6, §7, §8, §9

Assay [8] relates to Candida albican ATCC 96901. The assay can be described thus: In vitro antifungal activity (MIC80), Candida albican ATCC 96901. The following applies: Candida, ATCC96901; Table 2, ATCC 96901; read-out: Minimal inhibitory concentration (MIC80). As for the experimental part:
as §1, §2, §3, §4, §5, §6, §7, §8, §9

Assay [9] relates to Candida albican ATCC MYA-1003. Nature of the assay: In vitro antifungal activity (MIC80), Candida albican ATCC MYA-1003. Particulars: Candida; Table 2, MYA 1003; read-out: Minimal inhibitory concentration (MIC80). How it is done:
as §1, §2, §3, §4, §5, §6, §7, §8, §9

Assay [10] has as its system Candida albican ATCC MYA-575. The assay can be described thus: In vitro antifungal activity (MIC80), Candida albican ATCC MYA-575. Particulars: Candida; Table 2, MYA 575; read-out: Minimal inhibitory concentration (MIC80). How it is done:
as §1, §2, §3, §4, §5, §6, §7, §8, §9

SMILES strings stand for the structures. ≈ marks a conversion by molar mass, not a printed value. Where only a bound is given, the exact number is not on record here.

In the case of `CCCCOc1cccc(N2CCN([C@H](C)[C@](O)(Cn3cncn3)c3ccc(F)cc3F)CC2)n1` [Example 23, (2R,3R)-3-(4-(6-(butyloxy)pyridin-2-yl)piperazin-1-yl)-2-(2,4-difluorophenyl)-1-(1H-1,2,4-triazol-1-yl)butan-2-ol], the MIC80 in [1] is 0.5 µg/mL (≈ 1.03 µM); in assay [2] it was above 128 µg/mL; in [3], above 128 µg/mL; in assay [4], above 128 µg/mL; in assay [5], 0.25 µg/mL (≈ 0.514 µM); in assay [6] it was above 128 µg/mL. Moreover, the MIC80 in assay [7] is above 128 µg/mL; in assay [8] it was above 128 µg/mL; in [9], above 128 µg/mL; in assay [10] it was 0.5 µg/mL (≈ 1.03 µM).
Turning to `C[C@@H](N1CCN(c2cccc(OCc3cccs3)n2)CC1)[C@](O)(Cn1cncn1)c1ccc(F)cc1F` [Example 25, (2R,3R)-2-(2,4-difluorophenyl)-3-(4-(6-(thiophen-2-ylmethoxy)pyridin-2-yl)piperazin-1-yl)-1-(1H-1,2,4-triazol-1-yl)butan-2-ol], the MIC80 is 0.5 µg/mL (≈ 0.949 µM) in assay [1]; above 128 µg/mL in assay [2]; 2 µg/mL (≈ 3.8 µM) in assay [3]; above 128 µg/mL in assay [4]; 0.25 µg/mL (≈ 0.475 µM) in assay [5]; above 128 µg/mL in assay [6]. In addition, the MIC80 was above 128 µg/mL in assay [7], above 128 µg/mL in [8], above 128 µg/mL in assay [9] and 1 µg/mL (≈ 1.9 µM) in assay [10].
As for `C[C@@H](N1CCCN(c2nc3ccccc3o2)CC1)[C@](O)(Cn1cncn1)c1ccc(F)cc1F` [Example 15, (2R,3R)-3-(4-(benzooxazol-2-yl)-1,4-diazepan-1-yl)-2-(2,4-difluorophenyl)-1-(1H-1,2,4-triazol-1-yl)butan-2-ol], the MIC80 in assay [1] worked out at 0.125 µg/mL (≈ 0.267 µM); in [2], 2 µg/mL (≈ 4.27 µM); in [3], 0.5 µg/mL (≈ 1.07 µM); in [4], 1 µg/mL (≈ 2.13 µM); in assay [5] it was 0.125 µg/mL (≈ 0.267 µM); in assay [6], 8 µg/mL (≈ 17.1 µM). Also, the MIC80 in assay [7] was 0.25 µg/mL (≈ 0.534 µM); in [8], 16 µg/mL (≈ 34.2 µM); in assay [9], above 128 µg/mL; in assay [10], 0.125 µg/mL (≈ 0.267 µM).
With `CCCCOc1ccc(N2CCN([C@H](C)[C@](O)(Cn3cncn3)c3ccc(F)cc3F)CC2)cn1` [Example 32, (2R,3R)-3-(4-(6-(butyloxy)pyridin-3-yl)piperazin-1-yl)-2-(2,4-difluorophenyl)-1-(1H-1,2,4-triazol-1-yl)butan-2-ol], the MIC80 in assay [1] was determined as 0.125 µg/mL (≈ 0.257 µM); in assay [2], 1 µg/mL (≈ 2.06 µM); in [3], 1 µg/mL (≈ 2.06 µM); in assay [4], 4 µg/mL (≈ 8.22 µM); in [5], 0.125 µg/mL (≈ 0.257 µM); in [6] it was 4 µg/mL (≈ 8.22 µM). Further, the MIC80 in assay [7] is 1 µg/mL (≈ 2.06 µM); in assay [8], 8 µg/mL (≈ 16.4 µM); in assay [9], above 128 µg/mL; in assay [10] it was 0.5 µg/mL (≈ 1.03 µM).
Turning to `C[C@@H](N1CCN(c2ccc(OCC3CC3)nc2)CC1)[C@](O)(Cn1cncn1)c1ccc(F)cc1F` [Example 30, (2R,3R)-3-(4-(6-(cyclopropylmethoxy)pyridin-3-yl)piperazin-1-yl)-2-(2,4-difluorophenyl)-1-(1H-1,2,4-triazol-1-yl)butan-2-ol], the MIC80 in assay [1] amounted to 0.125 µg/mL (≈ 0.258 µM); in [2], 1 µg/mL (≈ 2.06 µM); in assay [3] it was 1 µg/mL (≈ 2.06 µM); in assay [4], 4 µg/mL (≈ 8.26 µM); in assay [5] it was 0.125 µg/mL (≈ 0.258 µM); in assay [6], 32 µg/mL (≈ 66 µM). The MIC80 was 1 µg/mL (≈ 2.06 µM) in [7], 32 µg/mL (≈ 66 µM) in [8], above 128 µg/mL in assay [9] and 0.125 µg/mL (≈ 0.258 µM) in assay [10].

(Values after US20100144712A1 (priority 2007, published 2010).)
